Reference: patent US20250205264A1, “METHODS OF USING AVERMECTIN COMPOSITIONS FOR THE TREATMENT OF SPASTICITY AND DOSING REGIMENS” (priority 2022, published 2025)

Tested on: pentylenetetrazol (PTZ)-induced ictal brain activity
Assay: Modulation of PTZ-induced seizures, BOLD fMRI
Type: in vivo, male Wistar rats
Conditions: for PTZ-induced brain activity: positive control compounds, all tested brain regions, high statistical significance
Procedure: Functional MRI (fMRI) was performed using a high-field preclinical MRI system in anesthetized male Wistar rats in order to determine the modulation of pentylenetetrazol (PTZ)-induced ictal brain activity by chronic treatment with test compound (TC). […] Vehicle and 3 mg/kg Alprazolam served as controls (see, Table 11) Seizures were induced with PTZ in each experimental group. A schematic of the study design can be seen in FIG. 6. Various physiological parameters were also measured throughout the experiment including body weight, CO2 levels, blood pH, and heart rate. […] Vehicle and 3 mg/kg Alprazolam served as controls (see, Table 12).

Compound	Statistical significances of BOLD fMRI AUC, Vehicle vs. Alprazolam (brain regions) (FIG. 7A, 3 mg/kg+PTZ, two-way ANOVA)	PTZ-induced brain activity
Cc1nnc2n1-c1ccc(Cl)cc1C(c1ccccc1)=NC2 [Alprazolam]	in all	effectively cancelled PTZ-induced brain activity
CN1C(=O)CN=C(c2ccccc2)c2cc(Cl)ccc21 [Diazepam]		effectively cancelled PTZ-induced brain activity
